This note sets out measurements from US4218562A, “Antibiotic derivatives of XK-62-2” (Abbott Laboratories, priority 1978, dated 1980).

Each structure is given as a SMILES string. Converted amounts (≈) assume the structure as drawn. Read-outs that look alike come from different tables or passages of the source.

The test system of data set [1] is Shigella seanei ATCC 9250. The data set is described as follows: microbe, parasite or virus in culture. It counts as cell-based.
Data set [2] concerns Proteus vulgaris ATCC 6897. Nature of the data set: Agar dilution MIC, pH 8.0: Proteus vulgaris ATCC 6897. It counts as cell-based. On the technique in general: Agar dilution tests growth on a series of plates holding different concentrations.
The test system of data set [3] is Pseudomanas aeruginosa BMH 1. The data set is described as follows: Agar dilution MIC, pH 8.0: Pseudomonas aeruginosa BMH 1. It counts as cell-based.
The next data set concerns Escherichia coli KY 8348. The data set is described as follows: Agar dilution MIC, pH 8.0: Escherichia coli KY 8348. It counts as cell-based. From the text: (§1) The former bacterium inactivates kanamycins and gentamicins by adenylation, and the latter inactivates gentamicins by acetylation.
The next data set deals with Escherichia coli ATCC 26. The data set is described as follows: Agar dilution MIC, pH 8.0: Escherichia coli ATCC 26. It counts as cell-based.
The test system of the next data set is Escherichia coli KY 8327. The data set is described as follows: Agar dilution MIC, pH 8.0: Escherichia coli KY 8327. It counts as cell-based.
From the text: as §1

The subject of data set [4] is Salmanella typhosa ATCC 9992. Nature of the data set: microbe, parasite or virus in culture. It counts as cell-based.
Data set [5] concerns Bacillus subtilis No. 10707. The data set is described as follows: Agar dilution MIC, pH 8.0: Bacillus subtilis No. 10707. It counts as cell-based.
The test system of data set [6] is strains of Escherichia coli having an R factor. Nature of the data set: Anti-bacterial activity against Escherichia coli having an R factor. It counts as cell-based. Particulars: E. coli having an R factor which shows resistance to known aminoglycoside antibiotics.
For data set [7], the system named is Krobsiella pneumoniae ATCC 10081. The data set is described as follows: Agar dilution MIC, pH 8.0: Krobsiella pneumoniae ATCC 10081. It counts as cell-based.
Data set [8] has as its system Staphylococcus aureus ATCC 6538P. The data set is described as follows: Agar dilution MIC, pH 8.0: Staphylococcus aureus ATCC 6538P. It counts as cell-based. The following applies: ATCC6538P.
For the next data set, the system named is Proteus vulgaris 6897. Nature of the data set: Agar dilution MIC, pH 7.2: Proteus vulgaris 6897. It counts as cell-based. Particulars: Proteus vulgaris, 6897, pH 7.2, read-out: Minimum Inhibitory Concentration.
The test system of another data set is Proteus marganii KY 4298. Nature of the data set: Agar dilution MIC, pH 7.2: Proteus marganii KY 4298. It counts as cell-based.
For data set [9], the system named is Pseudomonas aeruginosa KY 8510. The data set is described as follows: Agar dilution MIC, pH 7.2: Pseudomonas aeruginosa KY 8510. It counts as cell-based. Particulars: KY8510, pH 7.2, read-out: Minimum Inhibitory Concentration.
The test system of data set [10] is Pseudomonas aeruginosa KY 8512. The data set is described as follows: Agar dilution MIC, pH 7.2: Pseudomonas aeruginosa KY 8512. It counts as cell-based. The following applies: KY8512, pH 7.2, read-out: Minimum Inhibitory Concentration. An excerpt:
^7 produces neamycinkanamycin phosphotransferase Type

For data set [11], the system named is staphylococcus aureus 209P. Nature of the data set: Agar dilution MIC, pH 7.2: Staphylococcus aureus 209P. It counts as cell-based. The following applies: pH 7.2, read-out: Minimum Inhibitory Concentration.
A further data set has as its system Escherichia coli KY 8321. Nature of the data set: Agar dilution MIC, pH 7.2: Escherichia coli KY 8321. The following applies: KY8321, pH 7.2, read-out: Minimum Inhibitory Concentration. It counts as cell-based.
The subject of data set [12] is staphylococcus aureus Smith. Nature of the data set: Agar dilution MIC, pH 7.2: Staphylococcus aureus Smith. It counts as cell-based. Particulars: pH 7.2, read-out: Minimum Inhibitory Concentration.
Data set [13] deals with Pseudomonas aeruginosa KY 8516. Nature of the data set: Agar dilution MIC, pH 7.2: Pseudomonas aeruginosa KY 8516. Particulars: KY8516, pH 7.2, read-out: Minimum Inhibitory Concentration. It counts as cell-based.
Data set [14] has as its system Pseudomonas aeruginosa KY 8511. Nature of the data set: Agar dilution MIC, pH 7.2: Pseudomonas aeruginosa KY 8511. It counts as cell-based. Particulars: KY8511, pH 7.2, read-out: Minimum Inhibitory Concentration.
Data set [15] concerns Klebsiella pneumoniae No. 8045. The data set is described as follows: Agar dilution MIC, pH 7.2: Klebsiella pneumoniae No. 8045. It counts as cell-based. The following applies: NO.8045, pH 7.2, read-out: Minimum Inhibitory Concentration.
Data set [16] concerns Bacillus subtillus ATCC 6688. The data set is described as follows: Agar dilution MIC, pH 7.2: Bacillus subtillus ATCC 6688. It counts as cell-based.
A further data set concerns Escherichia coli T-5. The data set is described as follows: Agar dilution MIC, pH 7.2: Escherichia coli T-5. It counts as cell-based. Particulars: T5, pH 7.2, read-out: Minimum Inhibitory Concentration.
In a further data set the test system is Proteus Mirabilis 1287. Nature of the data set: Agar dilution MIC, pH 7.2: Proteus Mirabilis 1287. It counts as cell-based. Particulars: pH 7.2, read-out: Minimum Inhibitory Concentration.
The subject of a further data set is Sarcina lucca ATCC 9341. The data set is described as follows: Agar dilution MIC, pH 7.2: Sarcina lucca ATCC 9341. It counts as cell-based. The following applies: ATCC9341, pH 7.2, read-out: Minimum Inhibitory Concentration.
In data set [17] the test system is Pseudomonas aeruginosa BMH No. 1. Nature of the data set: Agar dilution MIC, pH 7.2: Pseudomonas aeruginosa BMH No. 1. It counts as cell-based.
The subject of another data set is Escherichia coli T-2. The data set is described as follows: Agar dilution MIC, pH 7.2: Escherichia coli T-2. It counts as cell-based. Particulars: T2, pH 7.2, read-out: Minimum Inhibitory Concentration.
A short description of a further data set: Solubility. It counts as physicochemical.
Where [18] appears, read: ATCC9250, agar-dilution method, pH 8.0, read-out: Minimum Inhibitory Concentration.
[19] abbreviates: ATCC6897, agar-dilution method, pH 8.0, read-out: Minimum Inhibitory Concentration.
[20] abbreviates: ATCC26, agar-dilution method, pH 8.0, read-out: Minimum Inhibitory Concentration.
[21] abbreviates: agar-dilution method, pH 8.0, read-out: Minimum Inhibitory Concentration.
Where [22] appears, read: pH 8, read-out: Minimum Inhibitory Concentration.

For the compound `CNC[C@@H]1CC[C@@H](NC(=O)[C@@H](O)CCN)[C@@H](O[C@H]2[C@H](O)[C@@H](O[C@H]3OC[C@](C)(O)[C@H](NC)[C@H]3O)[C@H](N)C[C@@H]2NC(=O)[C@@H](O)CCN)O1` [IV, 3-N-2'-N-bis[L-(-)-α-hydroxy-γ-aminobutyryl]XK-62-2], the MIC was found to be 0.26 µg/mL (≈ 0.391 µM) in data set [1] (setting [18]); 0.521 µg/mL (≈ 0.783 µM) in data set [2] (setting [19]); 8.34 µg/mL (≈ 12.5 µM) in data set [3] (BMH1, agar-dilution method, pH 8.0, read-out: Minimum Inhibitory Concentration); 0.13 µg/mL (≈ 0.195 µM) in the data set with Escherichia coli KY 8348 (Escherichia coli, KY8348, agar-dilution method, pH 8.0, strain produces gentamicin acetyltransferase Type I, read-out: Minimum Inhibitory Concentration); 0.13 µg/mL (≈ 0.195 µM) in the data set with Escherichia coli ATCC 26 (setting [20]); 0.26 µg/mL (≈ 0.391 µM) with Escherichia coli KY 8327 (Escherichia coli, KY8327, agar-dilution method, pH 8.0, strain produces gentamicin adenyltransferase, read-out: Minimum Inhibitory Concentration). For the same compound, the MIC was 0.13 µg/mL (≈ 0.195 µM) in data set [4] (setting [21]); 0.016 µg/mL (≈ 0.024 µM) in data set [5] (NO.10707, agar-dilution method, pH 8.0, read-out: Minimum Inhibitory Concentration); 0.065 µg/mL (≈ 0.0976 µM) in [7] (setting [21]); 0.13 µg/mL (≈ 0.195 µM) in data set [8] (setting [21]). Besides, the “anti-bacterial activity” value with Escherichia coli KY 8348 (comparison of MIC in Table 1, E. coli KY 8348) is given as “strong anti-bacterial activity”; in the data set on Escherichia coli KY 8327 (comparison of MIC in Table 1, E. coli KY 8327) it was “strong anti-bacterial activity”; in data set [6], “strong anti-bacterial activity”.

As for `NC[C@H]1O[C@H](O[C@H]2[C@H](O)[C@@H](O[C@H]3O[C@H](CO)[C@@H](O)[C@H](N)[C@H]3O)[C@H](N)C[C@@H]2N)[C@H](O)[C@@H](O)[C@@H]1O` [Kanamycin A, kanamycin A], the MIC was determined as 3.12 µg/mL (≈ 6.44 µM) with Proteus vulgaris 6897; 0.16 µg/mL (≈ 0.33 µM) in data set [1] (ATCC9250, pH 8, read-out: Minimum Inhibitory Concentration); 0.16 µg/mL (≈ 0.33 µM) in [2] (ATCC6897, pH 8, read-out: Minimum Inhibitory Concentration); 1.56 µg/mL (≈ 3.22 µM) in the data set with Proteus marganii KY 4298 (pH 7.2, read-out: Minimum Inhibitory Concentration); 100 µg/mL (≈ 206 µM) in data set [9]; 5.2 µg/mL (≈ 10.7 µM) in data set [3] (BMH1, pH 8, read-out: Minimum Inhibitory Concentration). Besides, the MIC in [10] was 12.5 µg/mL (≈ 25.8 µM); in data set [11], 0.2 µg/mL (≈ 0.413 µM); in the data set on Escherichia coli KY 8321, 100 µg/mL (≈ 206 µM); in data set [12], 0.2 µg/mL (≈ 0.413 µM); in data set [13], above 100 µg/mL; in the data set with Escherichia coli ATCC 26 (ATCC26, pH 8, read-out: Minimum Inhibitory Concentration), 0.16 µg/mL (≈ 0.33 µM). The MIC worked out at 100 µg/mL (≈ 206 µM) in [14]; 0.4 µg/mL (≈ 0.826 µM) in data set [15]; 0.2 µg/mL (≈ 0.413 µM) in [16] (ATCC6688, pH 7.2, read-out: Minimum Inhibitory Concentration); 0.088 µg/mL (≈ 0.182 µM) in [4] (setting [22]); 1.56 µg/mL (≈ 3.22 µM) in the data set on Escherichia coli T-5; 0.021 µg/mL (≈ 0.0433 µM) in [5] (NO.10707, pH 8, read-out: Minimum Inhibitory Concentration). Besides, the MIC in data set [7] (setting [22]) came out at 0.042 µg/mL (≈ 0.0867 µM); in the data set on Proteus Mirabilis 1287 it was 6.25 µg/mL (≈ 12.9 µM); in the data set with Sarcina lucca ATCC 9341, 6.25 µg/mL (≈ 12.9 µM); in [8] (setting [22]), 0.021 µg/mL (≈ 0.0433 µM); in data set [17] (BMHNO.1, pH 7.2, read-out: Minimum Inhibitory Concentration) it was 12.5 µg/mL (≈ 25.8 µM); in the data set on Escherichia coli T-2 it was 1.56 µg/mL (≈ 3.22 µM).

As to `CNC[C@@H]1CC[C@@H](N)[C@@H](O[C@H]2[C@H](O)[C@@H](O[C@H]3OC[C@](C)(O)[C@H](NC)[C@H]3O)[C@H](N)C[C@@H]2N)O1` [XK-62-2], the MIC is 0.033 µg/mL (≈ 0.0712 µM) in data set [1] (setting [18]); 0.033 µg/mL (≈ 0.0712 µM) in data set [2] (setting [19]); 0.4 µg/mL (≈ 0.863 µM) with Proteus marganii KY 4298 (agar dilution method, pH 7.2, read-out: Minimum Inhibitory Concentration); 0.016 µg/mL (≈ 0.0345 µM) in the data set on Escherichia coli ATCC 26 (setting [20]); below 0.05 µg/mL in data set [16] (ATCC6688, agar dilution method, pH 7.2, read-out: Minimum Inhibitory Concentration); 0.008 µg/mL (≈ 0.0173 µM) in data set [4] (setting [21]). Further, the MIC in data set [7] (setting [21]) was 0.004 µg/mL (≈ 0.00863 µM); in the data set with Sarcina lucca ATCC 9341, 0.4 µg/mL (≈ 0.863 µM); in data set [17] (BMHNO.1, agar dilution method, pH 7.2, read-out: Minimum Inhibitory Concentration), 0.78 µg/mL (≈ 1.68 µM). The solubility entry in “Solubility” (in chloroform, benzene, ethyl acetate and n-hexane) is on record as “insoluble”; in the data set “Solubility” (in ethanol and acetone), “slightly soluble”; in the data set “Solubility” (in water and methanol) it was “well soluble”.
